Tested on: 874868-142-R-J2-PDC complex spheroids, growth % test/control
Assay: Anticancer human tumor 874868-142-R-J2-PDC patient-derived head and neck squamous carcinoma cell line growth inhibition [CLK]
Settings: for IC50: curve of first compound; for viability, T/C: stronger effect = lower value; active = viability on the fitted dose curve at most 10% of control; inactive = the rest
How it was run: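 Multi-cell-type spheroids combined patient-derived tumor cells with HUVEC endothelial cells and human mesenchymal stem cells. Paired agents were dosed in half-log steps down from about clinical Cmax, or from 10 microM where Cmax was unknown.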

[1] = second compound 0.0316 µM, first compound 0.00949 µM
[2] = second compound 0.0316 µM, first compound 0.03 µM
[3] = second compound 0.0316 µM, first compound 0.0949 µM
[4] = second compound 0.0316 µM, first compound 0.3 µM
[5] = second compound 0.1 µM, first compound 0.00949 µM
[6] = second compound 0.1 µM, first compound 0.03 µM
[7] = second compound 0.1 µM, first compound 0.0949 µM
[8] = second compound 0.1 µM, first compound 0.3 µM
[9] = second compound 0.316 µM, first compound 0.00949 µM
[10] = second compound 0.316 µM, first compound 0.03 µM
[11] = second compound 0.316 µM, first compound 0.0949 µM
[12] = second compound 0.316 µM, first compound 0.3 µM
[13] = second compound 1 µM, first compound 0.00949 µM
[14] = second compound 1 µM, first compound 0.03 µM
[15] = second compound 1 µM, first compound 0.0949 µM
[16] = second compound 1 µM, first compound 0.3 µM
[17] = second compound 3.16 µM, first compound 0.00949 µM
[18] = second compound 3.16 µM, first compound 0.03 µM
[19] = second compound 3.16 µM, first compound 0.0949 µM
[20] = second compound 3.16 µM, first compound 0.3 µM
[21] = second compound 10 µM, first compound 0.00949 µM
[22] = second compound 10 µM, first compound 0.03 µM
[23] = second compound 10 µM, first compound 0.0949 µM
[24] = second compound 10 µM, first compound 0.3 µM
[25] = second compound 0.0316 µM, first compound 0.0316 µM
[26] = second compound 0.0316 µM, first compound 0.1 µM
[27] = second compound 0.0316 µM, first compound 0.316 µM
[28] = second compound 0.0316 µM, first compound 1 µM
[29] = second compound 0.0316 µM, first compound 3.16 µM
[30] = second compound 0.0316 µM, first compound 10 µM
[31] = second compound 0.1 µM, first compound 0.0316 µM
[32] = second compound 0.1 µM, first compound 0.1 µM
[33] = second compound 0.1 µM, first compound 0.316 µM
[34] = second compound 0.1 µM, first compound 1 µM
[35] = second compound 0.1 µM, first compound 3.16 µM
[36] = second compound 0.1 µM, first compound 10 µM
[37] = second compound 0.316 µM, first compound 0.0316 µM
[38] = second compound 0.316 µM, first compound 0.1 µM
[39] = second compound 0.316 µM, first compound 0.316 µM
[40] = second compound 0.316 µM, first compound 1 µM
[41] = second compound 0.316 µM, first compound 3.16 µM
[42] = second compound 0.316 µM, first compound 10 µM
[43] = second compound 1 µM, first compound 0.0316 µM
[44] = second compound 1 µM, first compound 0.1 µM
[45] = second compound 1 µM, first compound 0.316 µM
[46] = second compound 1 µM, first compound 1 µM
[47] = second compound 1 µM, first compound 3.16 µM
[48] = second compound 1 µM, first compound 10 µM
[49] = second compound 3.16 µM, first compound 0.0316 µM
[50] = second compound 3.16 µM, first compound 0.1 µM
[51] = second compound 3.16 µM, first compound 0.316 µM
[52] = second compound 3.16 µM, first compound 1 µM
[53] = second compound 3.16 µM, first compound 3.16 µM
[54] = second compound 3.16 µM, first compound 10 µM
[55] = second compound 10 µM, first compound 0.0316 µM
[56] = second compound 10 µM, first compound 0.1 µM
[57] = second compound 10 µM, first compound 0.316 µM
[58] = second compound 10 µM, first compound 1 µM
[59] = second compound 10 µM, first compound 3.16 µM
[60] = second compound 10 µM, first compound 10 µM
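Also: spheroids exposed to the compounds for 7 days.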
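For viability, T/C in this document: 100% = DMSO vehicle control viability.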

C=CC(=O)Nc1cc(Nc2nccc(-c3cn(C)c4ccccc34)n2)c(OC)cc1N(C)CCN(C)C + CN1CCN(c2cc(C(=O)Nc3cc4cc(-c5cnn(C)c5)ccc4cn3)ccn2)CC1
inactive: viability, T/C (second compound 0.0316 µM, first compound 0.000949 µM) 84.1% | viability, T/C (second compound 0.0316 µM, first compound 0.003 µM) 90.5% | viability, T/C [1] 80.3% | viability, T/C [2] 61.9% | viability, T/C [3] 37.1% | viability, T/C [4] 27.3% | viability, T/C (second compound 0.1 µM, first compound 0.000949 µM) 76% | viability, T/C (second compound 0.1 µM, first compound 0.003 µM) 70.6% | viability, T/C [5] 59.1% | viability, T/C [6] 49.6% | viability, T/C [7] 26.8% | viability, T/C [8] 22% | viability, T/C (second compound 0.316 µM, first compound 0.000949 µM) 19.2% | viability, T/C (second compound 0.316 µM, first compound 0.003 µM) 16.2% | viability, T/C [9] 19.7% | viability, T/C [10] 9.31% | viability, T/C [11] 15.2%
21.9 nM: IC50 (second compound 0.1 µM)
51.9 nM: IC50 (second compound 0.0316 µM)
< 0.949 nM: IC50 (second compound 0.316 µM) | IC50 (second compound 1 µM) | IC50 (second compound 3.16 µM) | IC50 (second compound 10 µM)
active: viability, T/C [12] 7.92% | viability, T/C (second compound 1 µM, first compound 0.000949 µM) 0.41% | viability, T/C (second compound 1 µM, first compound 0.003 µM) 0.88% | viability, T/C [13] 1.96% | viability, T/C [14] 0.37% | viability, T/C [15] 0.71% | viability, T/C [16] 0.79% | viability, T/C (second compound 3.16 µM, first compound 0.000949 µM) 0.27% | viability, T/C (second compound 3.16 µM, first compound 0.003 µM) 0.34% | viability, T/C [17] 0.26% | viability, T/C [18] 0.66% | viability, T/C [19] 4.28% | viability, T/C [20] 0.48% | viability, T/C (second compound 10 µM, first compound 0.000949 µM) 7.4% | viability, T/C (second compound 10 µM, first compound 0.003 µM) 0.25% | viability, T/C [21] 3.1% | viability, T/C [22] 0.21% | viability, T/C [23] 1.3% | viability, T/C [24] 2.16%

CC1(C)CCC(CN2CCN(c3ccc(C(=O)NS(=O)(=O)c4ccc(NCC5CCOCC5)c([N+](=O)[O-])c4)c(Oc4cnc5[nH]ccc5c4)c3)CC2)=C(c2ccc(Cl)cc2)C1 + CN1CCN(c2cc(C(=O)Nc3cc4cc(-c5cnn(C)c5)ccc4cn3)ccn2)CC1
< 31.6 nM: IC50 (second compound 0.316 µM) | IC50 (second compound 1 µM) | IC50 (second compound 3.16 µM) | IC50 (second compound 10 µM)
active: viability, T/C [43] 0.46% | viability, T/C [44] 4.39% | viability, T/C [45] 0.38% | viability, T/C [46] 0.29% | viability, T/C [47] 0.25% | viability, T/C [48] 0.25% | viability, T/C [49] 0.23% | viability, T/C [50] 0.22% | viability, T/C [51] 0.22% | viability, T/C [52] 0.13% | viability, T/C [53] 0.22% | viability, T/C [54] 0.19% | viability, T/C [55] 0.13% | viability, T/C [56] 3.51% | viability, T/C [57] 1.25% | viability, T/C [58] 0.25% | viability, T/C [59] 0.17% | viability, T/C [60] 1.58%
inactive: viability, T/C [25] 72.6% | viability, T/C [26] 90.4% | viability, T/C [27] 69.6% | viability, T/C [28] 96.1% | viability, T/C [29] 76.6% | viability, T/C [30] 70% | viability, T/C [31] 77.6% | viability, T/C [32] 69.9% | viability, T/C [33] 67.1% | viability, T/C [34] 75.9% | viability, T/C [35] 47.2% | viability, T/C [36] 58.9% | viability, T/C [37] 20.8% | viability, T/C [38] 17.6% | viability, T/C [39] 17% | viability, T/C [40] 18.8% | viability, T/C [41] 12.8% | viability, T/C [42] 11.3%
> 10000 nM: IC50 (second compound 0.0316 µM) | IC50 (second compound 0.1 µM)

NC(=O)C(=Cn1cnc(-c2cc(C(F)(F)F)cc(C(F)(F)F)c2)n1)c1cncnc1 + CN1CCN(c2cc(C(=O)Nc3cc4cc(-c5cnn(C)c5)ccc4cn3)ccn2)CC1
inactive: viability, T/C [1] 69.8% | viability, T/C [2] 62.5% | viability, T/C [3] 35.4% | viability, T/C [4] 20.1% | viability, T/C [5] 50% | viability, T/C [6] 44.8% | viability, T/C [7] 25.2% | viability, T/C [9] 14%
< 9.49 nM: IC50 (second compound 0.1 µM) | IC50 (second compound 0.316 µM) | IC50 (second compound 1 µM) | IC50 (second compound 3.16 µM) | IC50 (second compound 10 µM)
51.3 nM: IC50 (second compound 0.0316 µM)
active: viability, T/C (second compound 0.0316 µM, first compound 0.949 µM) 1.73% | viability, T/C (second compound 0.0316 µM, first compound 3 µM) 2.54% | viability, T/C [8] 3.61% | viability, T/C (second compound 0.1 µM, first compound 0.949 µM) 0.81% | viability, T/C (second compound 0.1 µM, first compound 3 µM) 0.34% | viability, T/C [10] 5.04% | viability, T/C [11] 0.53% | viability, T/C [12] 0.23% | viability, T/C (second compound 0.316 µM, first compound 0.949 µM) 0.23% | viability, T/C (second compound 0.316 µM, first compound 3 µM) 0.1% | viability, T/C [13] 0.37% | viability, T/C [14] 0.25% | viability, T/C [15] 0.32% | viability, T/C [16] 0.28% | viability, T/C (second compound 1 µM, first compound 0.949 µM) 0.22% | viability, T/C (second compound 1 µM, first compound 3 µM) 1.66% | viability, T/C [17] 0.39% | viability, T/C [18] 0.31% | viability, T/C [19] 0.46% | viability, T/C [20] 0.38% | viability, T/C (second compound 3.16 µM, first compound 0.949 µM) 0.19% | viability, T/C (second compound 3.16 µM, first compound 3 µM) 0.14% | viability, T/C [21] 0.14% | viability, T/C [22] 0.14% | viability, T/C [23] 3.64% | viability, T/C [24] 0.17% | viability, T/C (second compound 10 µM, first compound 0.949 µM) 0.24% | viability, T/C (second compound 10 µM, first compound 3 µM) 0.2%

Nc1ccccc1NC(=O)c1ccc(CNC(=O)OCc2cccnc2)cc1 + CN1CCN(c2cc(C(=O)Nc3cc4cc(-c5cnn(C)c5)ccc4cn3)ccn2)CC1
active: viability, T/C [41] 7.51% | viability, T/C [42] 0.19% | viability, T/C [43] 0.32% | viability, T/C [44] 6.56% | viability, T/C [45] 0.28% | viability, T/C [46] 0.17% | viability, T/C [47] 0.12% | viability, T/C [48] 2.14% | viability, T/C [49] 0.23% | viability, T/C [50] 0.27% | viability, T/C [51] 0.18% | viability, T/C [52] 0.2% | viability, T/C [53] 0.27% | viability, T/C [54] 0.26% | viability, T/C [55] 0.1% | viability, T/C [56] 0.32% | viability, T/C [57] 0.16% | viability, T/C [58] 0.14% | viability, T/C [59] 0.18% | viability, T/C [60] 2.46%
< 31.6 nM: IC50 (second compound 0.316 µM) | IC50 (second compound 1 µM) | IC50 (second compound 3.16 µM) | IC50 (second compound 10 µM)
inactive: viability, T/C [25] 86.7% | viability, T/C [26] 79.6% | viability, T/C [27] 88.7% | viability, T/C [28] 116% | viability, T/C [29] 94.5% | viability, T/C [30] 35.2% | viability, T/C [31] 73.2% | viability, T/C [32] 67.8% | viability, T/C [33] 72.5% | viability, T/C [34] 102% | viability, T/C [35] 62.8% | viability, T/C [36] 21.2% | viability, T/C [37] 13.4% | viability, T/C [38] 15.8% | viability, T/C [39] 15.8% | viability, T/C [40] 17.9%
7470 nM: IC50 (second compound 0.0316 µM)
4500 nM: IC50 (second compound 0.1 µM)

Source: PubChem BioAssay AID2060601 (Molecular Pharmacology Branch, DTP, NCI, 2025)
